Measured values as given in patent publication US11008295B2, “Compounds having antiinfective, antitumoral and antifungal activity” (priority 2017, dated 2021).

What was measured:
Test in all cases: Kirby-Bauer disk diffusion susceptibility test
P. aeruginosa = type: cell-based
Method: (§1) Bacterial strains, from clinical origin, were supplied by the National Center for Microbiology, Institute of Health Carlos III (Majadahonda, Madrid). They are detailed in Table I.
(§2) Bacterial cells suspension in sterile saline was prepared from a culture of 24-72 h, depending on bacterial species, in Mueller-Hinton Agar with 5% sheep blood. Each suspension was adjusted to a fixed size inoculum of 1-5×10^8 CFU/ml with a spectrophotometer (Ferraro, M J National Committee for Clinical Laboratory Standards. 2000).
(§3) Kirby-Bauer disk diffusion susceptibility test protocol was utilized to determine the sensitivity or resistance of pathogenic bacteria against the compounds and others antibiotics. The absence of growth around the disks is an indirect measure of the ability of this compound to inhibit an organism (Kirby, W. et al., Antibiotics Annu. 1956-1957:892). After 18 to 72 hours of incubation at […], with or without CO2, under aerobic or anaerobic conditions, depending on the bacterial species, halo of growth inhibition were obtained and evaluated.
(§4) Interpretation of susceptibility and resistance was based on the presence or absence of a zone of inhibition surrounding the disk. Kirby-Bauer disk diffusion susceptibility test is a common method which uses antibiotic-impregnated wafers to test whether bacteria are affected by antibiotics. The size of the zone of inhibition depends on how effective the antibiotic is at stopping the growth of the bacterium. A stronger antibiotic will create a larger zone, because a lower concentration of the antibiotic is enough to stop growth.

N. cyriacigeorgica = type: cell-based
Method: as §1, §2, §3, §4

S. aureus = type: cell-based
Method: as §1, §2, §3, §4

E. faecalis = type: cell-based
Method: as §1, §2, §3, §4

E. faecium = type: cell-based
Method: as §1, §2, §3, §4

E. coli = type: cell-based
Method: as §1, §2, §3, §4

A. baumannii = type: cell-based
Method: as §1, §2, §3, §4

S. epidermidis = type: cell-based
Method: as §1, §2, §3, §4

N. carnea = type: cell-based, Nocardia carnea
Method: as §1, §2, §3, §4

T. pulmonis = type: cell-based, Tsukamurella pulmonis
Method: as §1, §2, §3, §4

B. cereus = type: cell-based, Bacillus cereus
Method: as §1, §2, §3, §4

M. fortuitum = type: cell-based; conditions: M. fortuitum strain 1080, isolation year 2011
Method: as §1, §2, §3, §4

M. chelonae = type: cell-based; conditions: M. chelonae strain 870, isolation year 2011
Method: as §1, §2, §3, §4

M. abscessus = type: cell-based, Mycobacterium abscessus; conditions: M. abscessus strain 690, isolation year 2012
Method: as §1, §2, §3, §4

[1] = P. aeruginosa strain 96, isolation year 2014
[2] = P. aeruginosa strain 115, isolation year 2013
[3] = N cyriacigeorgica strain 199, isolation year 2005
[4] = N. cyriacigeorgica strain 30, isolation year 2005
[5] = S. aureus strain 282, isolation year 2005
[6] = S. aureus strain 890, isolation year 2010
[7] = E. faecalis strain 52, isolation year 2006
[8] = E. faecalis strain 1052, isolation year 2008
[9] = E. faecium strain 26, isolation year 2012
[10] = E. faecium strain 209, isolation year 2015
[11] = E. coli strain 29, isolation year 2012
[12] = E. coli strain 305, isolation year 2008
[13] = A. baumannii strain 300, isolation year 2001
[14] = A. baumannii strain 1301, isolation year 2009
[15] = S. epidermidis strain 188, isolation year 2009
[16] = S. epidermidis strain 982, isolation year 2006
[17] = N. carnea strain 40, isolation year 2011
[18] = N. carnea strain 769, isolation year 2009
[19] = T. pulmonis strain 40, isolation year 2015
[20] = T. pulmonis strain 1991, isolation year 2009
[21] = B. cereus strain 25, isolation year 2014
[22] = B. cereus strain 182, isolation year 2013
Note: key: I = intermediate activity; S = susceptibility; R = Resistance.

Row | Compound | Sensitivity or resistance of the strain to the antibiotic (P. aeruginosa; [1]) | Sensitivity or resistance of the strain to the antibiotic (N. cyriacigeorgica; [3]) | Sensitivity or resistance of the strain to the antibiotic (N. cyriacigeorgica; [4]) | Sensitivity or resistance of the strain to the antibiotic (S. aureus; [5]) | Sensitivity or resistance of the strain to the antibiotic (S. aureus; [6]) | Sensitivity or resistance of the strain to the antibiotic (E. faecalis; [7]) | Sensitivity or resistance of the strain to the antibiotic (E. faecalis; [8]) | Sensitivity or resistance of the strain to the antibiotic (E. faecium; [9]) | Sensitivity or resistance of the strain to the antibiotic (E. faecium; [10]) | Sensitivity or resistance of the strain to the antibiotic (E. coli; [11]) | Sensitivity or resistance of the strain to the antibiotic (E. coli; [12]) | Sensitivity or resistance of the strain to the antibiotic (A. baumannii; [13]) | Sensitivity or resistance of the strain to the antibiotic (S. epidermidis; [15]) | Sensitivity or resistance of the strain to the antibiotic (S. epidermidis; [16]) | Sensitivity or resistance of the strain to the antibiotic (N. carnea; [17]) | Sensitivity or resistance of the strain to the antibiotic (N. carnea; [18]) | Sensitivity or resistance of the strain to the antibiotic (T. pulmonis; [19]) | Sensitivity or resistance of the strain to the antibiotic (T. pulmonis; [20]) | Sensitivity or resistance of the strain to the antibiotic (B. cereus; [21]) | Sensitivity or resistance of the strain to the antibiotic (B. cereus; [22]) | further results
1 | NCC[C@H](O)C(=O)N[C@@H]1C[C@H](N)[C@@H](O[C@H]2O[C@H](CN)[C@@H](O)[C@H](O)[C@H]2O)[C@H](O)[C@H]1O[C@H]1O[C@H](CO)[C@@H](O)[C@H](N)[C@H]1O [AMK, Amikacin] | S | R | S | S | S | S | S | S | R | S | S | R | S | S | R | S | R | S | – | – | Sensitivity or resistance of the strain to the antibiotic (P. aeruginosa; [2]): S; Sensitivity or resistance of the strain to the antibiotic (A. baumannii; [14]): S
2 | CO/N=C(\C(=O)N[C@@H]1C(=O)N2C(C(=O)O)=C(CSc3nc(=O)c(O)nn3C)CS[C@H]12)c1csc(N)n1 [CEF, Ceftriazone] | R | – | – | – | – | – | – | – | – | – | – | R | – | – | – | – | – | – | – | – | Sensitivity or resistance of the strain to the antibiotic (A. baumannii; [14]): R
3 | CCC[C@@H]1C[C@@H](C(=O)N[C@@H]([C@H]2O[C@H](SC)[C@H](O)[C@@H](O)[C@H]2O)[C@H](C)Cl)N(C)C1 [CLI, Clindamycin] | – | – | – | R | R | – | – | – | – | – | – | – | S | R | – | – | – | – | R | R | –
4 | CO/N=C(\C(=O)N[C@@H]1C(=O)N2C(C(=O)O)=C(COC(C)=O)CS[C@H]12)c1csc(N)n1 [CTX, Cefotaxime] | S | R | S | – | – | R | R | R | R | S | R | – | – | – | S | S | R | S | – | – | Sensitivity or resistance of the strain to the antibiotic (P. aeruginosa; [2]): S
5 | CC[C@H]1OC(=O)[C@H](C)[C@@H](O[C@H]2C[C@@](C)(OC)[C@@H](O)[C@H](C)O2)[C@H](C)[C@@H](O[C@@H]2O[C@H](C)C[C@H](N(C)C)[C@H]2O)[C@](C)(O)C[C@@H](C)C(=O)[C@H](C)[C@@H](O)[C@]1(C)O [ERI, Erythromycin] | – | R | R | R | R | – | – | – | – | S | S | – | S | R | R | R | R | S | R | R | Sensitivity or resistance of the strain to the antibiotic (M. fortuitum): R; Sensitivity or resistance of the strain to the antibiotic (M. chelonae): R; Sensitivity or resistance of the strain to the antibiotic (M. abscessus): S
6 | C[C@@H](O)[C@H]1C(=O)N2C(C(=O)O)=C(S[C@@H]3CN[C@H](C(=O)N(C)C)C3)[C@H](C)[C@H]12 [MER, Meropenem] | R | – | – | – | – | – | – | – | – | – | – | R | – | – | – | – | – | – | – | – | Sensitivity or resistance of the strain to the antibiotic (A. baumannii; [14]): S
7 | CO[C@H]1/C=C/O[C@@]2(C)Oc3c(C)c(O)c4c(O)c(c(/C=N/N5CCN(C)CC5)c(O)c4c3C2=O)NC(=O)/C(C)=C\C=C\[C@H](C)[C@H](O)[C@@H](C)[C@@H](O)[C@@H](C)[C@H](OC(C)=O)[C@@H]1C [RIF, Rifampicin] | – | – | – | – | – | – | – | – | – | – | – | – | – | – | – | – | – | – | S | S | –
8 | CN(C)[C@@H]1C(O)=C(C(N)=O)C(=O)[C@@]2(O)C(O)=C3C(=O)c4c(O)cccc4[C@@](C)(O)[C@H]3C[C@@H]12 [TET, Tetracycline] | – | – | – | S | R | – | – | – | – | – | – | – | S | S | – | – | – | – | R | S | –
9 | NC[C@H]1O[C@H](O[C@H]2[C@H](O)[C@@H](O[C@H]3O[C@H](CO)[C@@H](O)[C@H](N)[C@H]3O)[C@H](N)C[C@@H]2N)[C@H](N)C[C@@H]1O [TOB, Tobramycin] | S | – | – | – | – | – | – | – | – | – | – | S | – | – | – | – | – | – | – | – | Sensitivity or resistance of the strain to the antibiotic (A. baumannii; [14]): S
10 | CN[C@H](CC(C)C)C(=O)N[C@H]1C(=O)N[C@@H](CC(N)=O)C(=O)N[C@H]2C(=O)N[C@H]3C(=O)N[C@H](C(=O)N[C@H](C(=O)O)c4cc(O)cc(O)c4-c4cc3ccc4O)[C@H](O)c3ccc(c(Cl)c3)Oc3cc2cc(c3O[C@@H]2O[C@H](CO)[C@@H](O)[C@H](O)[C@H]2O[C@H]2C[C@](C)(N)[C@H](O)[C@H](C)O2)Oc2ccc(cc2Cl)[C@H]1O [VAN, Vancomycin] | – | – | – | S | S | S | S | I | S | – | – | – | S | S | – | – | – | – | S | S | –
11 | Amoxicillin/Clavulanate [A/C] | – | R | R | – | – | – | – | – | – | S | R | – | – | – | S | S | R | S | – | – | –
12 | Cotrimoxazole [SxT] | – | S | S | – | – | – | – | – | – | – | – | – | – | – | R | R | R | S | – | – | Sensitivity or resistance of the strain to the antibiotic (M. fortuitum): S; Sensitivity or resistance of the strain to the antibiotic (M. chelonae): R; Sensitivity or resistance of the strain to the antibiotic (M. abscessus): S
13 | Gentamicin | – | – | – | R | R | S | S | S | S | S | S | – | S | R | – | – | – | – | – | – | –
